Reference: US20250263376A1, “(E)-N-CINNAMOYLAMINOALKANOLS WITH MELANOGENESIS INHIBITORY ACTIVITY” (Uniwersytet Jagiellonski, priority 2024, published 2025)

How the values were obtained:
[1] = test system: S. typhimurium TA100; test: Ames microplate test, TA100; type: cell-based, Salmonella typhimurium
Procedure: The study used the Ames microplate test (Ames MPF™ Penta 2 by Xenometrix, Allschwil, Switzerland). Growth medium, exposure medium, indicator medium, positive controls, hepatic microsomal fraction, NADP, glucose-6-phosphate, Salmonella typhimurium and Escherichia coli strains were components of the purchased experimental kit. Bacteria were grown overnight in growth medium. They were then exposed to the test compound at the appropriate concentration in exposure medium without or with the rat microsomal fraction S9 in 24-well plates for 90 min at 37° C. with shaking. Then, indicator medium was added to the wells and pipetted into 384-well plates, which were incubated for 48 hours at 37° C. without shaking. Results were assessed by counting the wells in which the medium turned yellow for each experimental condition.

[2] = test system: primary melanocytes; test: Safety, LDH test in primary melanocytes; type: cell-based; settings: 48 hours, vs Triton X-100
Procedure: (§1) In order to test the safety of the compounds, both normal human cells were used: keratinocytes (HaCaT), fibroblasts (BJ), primary melanocytes that occur in the skin, as well as human cancer cells: the hepatocarcinoma line HepG2 and the neuroblastoma line SH-SY5Y, which are considered a model for the assessment of hepatocytotoxicity and neurocytotoxicity. The concentrations of the tested compounds in the range of […] were used in the studies. The cell lines used in the research were purchased from the American Type Culture Collection (ATCC) and were cultured in media recommended by the manufacturer with the addition of FBS and antibiotics in an incubator ensuring appropriate culture conditions, i.e. humidity, temperature and CO2 concentration. Cells were seeded into multiwell plates and incubated with the test compounds for 48 hours. After this time, MTT and LDH tests were performed to assess cell viability. The MTT test is based on the ability to transform the substrate: [3-(4,5-dimethyl-2-thiazolyl)-2,5-diphenyl-2H-tetrazolium bromide into a colored product only by living cells. The absorbance at 570 nm, which corresponds to the absorption maximum for the product, is directly proportional to cell viability. The LDH test is based on testing the activity of the enzyme lactate dehydrogenase in the culture medium, which is released from cells as a result of damage to the cell membrane, e.g. as a result of cell death. Triton X-100 was used as a positive control in the test. The determination is colorimetric, the substrate is transformed by the released enzyme into a colored product, an increase in absorbance indicates a larger amount of the released enzyme, and thus confirms greater damage to cell membranes. Tables 7 and 8 present the results obtained, which correspond to the viability of cells incubated with the compounds in relation to the viability of cells constituting a control sample, i.e. incubated with the solvent (DMSO) at the same concentration as in the case of the groups tested in the MTT test or in relation to the results obtained for the Triton X-100 positive control in the LDH test. They indicate that the compounds are safe at the concentrations tested.

[3] = test system: neuroblastoma SH-SY5Y; test: Safety, LDH test in SH-SY5Y; type: cell-based; settings: 48 hours, vs Triton X-100
Procedure: as §1

[4] = test system: S. typhimurium TA1537; test: Ames microplate test, TA1537; type: cell-based, Salmonella typhimurium
Procedure: (§2) Bacteria were grown overnight in growth medium.

[5] = test system: fibroblasts (BJ); test: Safety, MTT test in fibroblasts; type: cell-based; settings: 48 hours
Procedure: as §1

[6] = test system: keratinocytes (HaCaT); test: Safety, MTT test in keratinocytes; type: cell-based; settings: 48 hours
Procedure: as §1

[7] = test system: hepatocarcinoma HepG2; test: Safety, MTT test in HepG2; type: cell-based; settings: 48 hours
Procedure: as §1

[8] = test system: E. coli WP2; test: Ames microplate test, E. coli WP2;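 further: bacteria exposed to compound for 90 min at 37 °C in 24-well plates, then transferred with indicator medium to 384-well plates and incubated 48 h before yellow well counting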
[9] = test system: CHO-K1 cells; test: Cytotoxicity (MTT) in CHO-K1 cells before the micronucleus test; type: cell-based, Chinese hamster; settings: 24 hours
Procedure: The assay was performed using a Chinese hamster ovary cell line (CHO-K1) purchased from the American Type Culture Collection (ATCC). The cells were cultured in F-12K medium with the addition of 10% fetal bovine serum (FBS) and antibiotics (streptomycin/penicillin) in an incubator at 37° C. and 5% CO2 concentration). Before the actual micronucleus test, a cytotoxicity assessment was performed to ensure that the actual test was performed only at safe concentrations. For this purpose, cells were transferred to 96-well plates and incubated with the tested compounds for 24 hours. After this time, the MTT test was performed and cell viability was assessed in comparison to the control group (cells cultured with DMSO at the same concentration as in the case of the tested samples).

[10] = test system: keratinocytes (HaCaT); test: Safety, LDH test in keratinocytes; type: cell-based; settings: 48 hours, vs Triton X-100
Procedure: as §1

[11] = test system: S. typhimurium TA98; test: Ames microplate test, TA98; type: cell-based, Salmonella typhimurium
Procedure: as §2

O=C(/C=C/c1ccccc1)NCCCCCO [Compound A-133, (2E)-N-(5-hydroxypentyl)-3-phenylprop-2-enamide]
Increase in the number of yellow wells compared to the reference level, TA100 ([1]; 0.5 mM, + S9): 0.83
Increase in the number of yellow wells compared to the reference level, TA100 ([1]; 0.5 mM, without S9): 0.60
Increase in the number of yellow wells compared to the reference level, TA100 ([1]; 1.0 mM, + S9): 0.78
Increase in the number of yellow wells compared to the reference level, TA100 ([1]; 1.0 mM, without S9): 1.03
Increase in the number of yellow wells compared to the reference level, TA100 ([1]; 2.0 mM, + S9): 0.61
Increase in the number of yellow wells compared to the reference level, TA100 ([1]; 2.0 mM, without S9): 0.57
LDH, Primary melanocytes ([2]; 100 μM): 4.68 percentage of positive control
LDH, Primary melanocytes ([2]; 150 μM): 7.59 percentage of positive control
LDH, Primary melanocytes ([2]; 200 μM): 16.71 percentage of positive control
LDH, Primary melanocytes ([2]; 250 μM): 19.45 percentage of positive control
LDH, Neuroblastoma SH-SY5Y ([3]; 100 μM): 5.33 percentage of positive control
LDH, Neuroblastoma SH-SY5Y ([3]; 150 μM): 6.93 percentage of positive control
LDH, Neuroblastoma SH-SY5Y ([3]; 200 μM): 8.49 percentage of positive control
LDH, Neuroblastoma SH-SY5Y ([3]; 250 μM): 13.32 percentage of positive control
Increase in the number of yellow wells compared to the reference level, TA1537 ([4]; 0.5 mM, + S9): 0.18
Increase in the number of yellow wells compared to the reference level, TA1537 ([4]; 0.5 mM, without S9): 1.07
Increase in the number of yellow wells compared to the reference level, TA1537 ([4]; 1.0 mM, + S9): 0.36
Increase in the number of yellow wells compared to the reference level, TA1537 ([4]; 1.0 mM, without S9): 0.54
Increase in the number of yellow wells compared to the reference level, TA1537 ([4]; 2.0 mM, + S9): 0.27
Increase in the number of yellow wells compared to the reference level, TA1537 ([4]; 2.0 mM, without S9): 0.54
MTT, Fibroblasts (BJ) ([5]; 100 μM): 99.41 ± 5.96 % of solvent control
MTT, Fibroblasts (BJ) ([5]; 150 μM): 91.68 ± 3.64 % of solvent control
MTT, Fibroblasts (BJ) ([5]; 200 μM): 87.76 ± 2.71 % of solvent control
MTT, Fibroblasts (BJ) ([5]; 250 μM): 82.50 ± 3.99 % of solvent control
MTT, Keratinocytes (HaCaT) ([6]; 100 μM): 101.35 ± 2.17 % of solvent control
MTT, Keratinocytes (HaCaT) ([6]; 150 μM): 101.40 ± 2.08 % of solvent control
MTT, Keratinocytes (HaCaT) ([6]; 200 μM): 101.51 ± 2.49 % of solvent control
MTT, Keratinocytes (HaCaT) ([6]; 250 μM): 95.53 ± 2.80 % of solvent control
MTT, Hepatocarcinoma HepG2 ([7]; 100 μM): 104.96 ± 7.60 % of solvent control
MTT, Hepatocarcinoma HepG2 ([7]; 150 μM): 100.66 ± 7.39 % of solvent control
MTT, Hepatocarcinoma HepG2 ([7]; 200 μM): 99.09 ± 1.60 % of solvent control
MTT, Hepatocarcinoma HepG2 ([7]; 250 μM): 98.92 ± 2.34 % of solvent control
Increase in the number of yellow wells compared to the reference level, E. coli WP2 ([8]; 0.5 mM, + S9): 0.27
Increase in the number of yellow wells compared to the reference level, E. coli WP2 ([8]; 0.5 mM, without S9): 0.73
Increase in the number of yellow wells compared to the reference level, E. coli WP2 ([8]; 1.0 mM, + S9): 0.44
Increase in the number of yellow wells compared to the reference level, E. coli WP2 ([8]; 1.0 mM, without S9): 0.37
Increase in the number of yellow wells compared to the reference level, E. coli WP2 ([8]; 2.0 mM, + S9): 0.53
Increase in the number of yellow wells compared to the reference level, E. coli WP2 ([8]; 2.0 mM, without S9): 1.10
% Viability [mean], CHO-K1 ([9]; 100 μM): 94.6%
% Viability [mean], CHO-K1 ([9]; 150 μM): 97.2%
% Viability [mean], CHO-K1 ([9]; 200 μM): 89.1%
LDH, Keratinocytes (HaCaT) ([10]; 100 μM): 3.23 percentage of positive control
LDH, Keratinocytes (HaCaT) ([10]; 150 μM): 3.08 percentage of positive control
LDH, Keratinocytes (HaCaT) ([10]; 200 μM): 6.38 percentage of positive control
LDH, Keratinocytes (HaCaT) ([10]; 250 μM): 19.58 percentage of positive control
Increase in the number of yellow wells compared to the reference level, TA98 ([11]; 0.5 mM, + S9): 0.50
Increase in the number of yellow wells compared to the reference level, TA98 ([11]; 0.5 mM, without S9): 0.44
Increase in the number of yellow wells compared to the reference level, TA98 ([11]; 1.0 mM, + S9): 0.67
Increase in the number of yellow wells compared to the reference level, TA98 ([11]; 1.0 mM, without S9): 0.33
Increase in the number of yellow wells compared to the reference level, TA98 ([11]; 2.0 mM, + S9): 1.00
Increase in the number of yellow wells compared to the reference level, TA98 ([11]; 2.0 mM, without S9): 0.67
